Reference: patent US11154564B2, “Composition for cough” (Aboca S.p.A. Società Agricola, priority 2017, dated 2021)

Legend:
[1] = system: human keratocytes; test: Scavenger-type anti-oxidizing activity assay (DCA probe, H2O2 oxidative stress); type: cell-based; details: 0.05 mg/ml
Text: Assessment of anti-oxidizing activity of the sample on human cells exposed to chemical-type progressive oxidative stress. The assessment of anti-oxidizing action is obtained from quantification of free radical formation in cells exposed to the sample and to oxidative stress. The method applied is based on the use of the fluorimetric probe 2,7 dichlorofluorescein acetate-DCA-: this probe penetrates into cells, binds to cell membrane proteins and macromolecules. In this form, the probe is not fluorescent, only becoming fluorescent when oxidized by free radicals. Cells pretreated with DCA are exposed to the various dilutions of the sample and hydrogen peroxide. […] Starting from this mother solution, the first dilution was prepared at a concentration of 0.5 mg/ml in saline; therefrom, by applying a 1:2 dilution factor, the other four dilutions were obtained. Positive Control: cells exposed to the 500 μM H2O2 solution. Internal Control: cells exposed to an ascorbic acid solution (0.05 mg/ml). Negative Control: cells exposed to the inoculation medium. The assay was performed on a simple cell model consisting of a monolayer of stabilized human keratocytes (cells were purchased from IZSLER and are guaranteed as free from any viral/bacterial contamination and/or from mycoplasma). […] The same procedure was carried out to obtain the same five dilutions in a 500 μM H2O2 solution in saline. 150 μl per each dilution (in saline and in H2O2) were distributed into four wells on two different plates. Cultured cells were enzymatically detached from the growth medium and counted with an electronic cell counter (Scepter); a cell suspension was prepared (in inoculation medium) at the density of 300,000 cells/ml, which were then distributed into 96-well plates: 100 μl per well, obtaining a seeding density of 30,000 cells per well. Lastly, the plates were placed back to culture in an incubator at 37° C. and 5% CO2-enriched humid atmosphere for the subsequent 24 hours. The inoculation medium was removed, cells were washed once with PBS, then PBS was discarded and 150 μl DCA (4 μM) was distributed in both plates. Then, the plates were placed back in incubator at 37° C. and 5% CO2-enriched atmosphere for 15 minutes. At the end of the DCA incubation period, the solution was removed, and cells were washed once with PBS, then 150 μl of the above-described dilutions of the sample and of the controls were distributed in the plates. Then, free radical formation was measured from T0 (right after inoculation into the two plates) every 20 minutes, up to 100 minutes (5 measurements) with a fluorimeter. At the end of the measurements, after the 100 minutes, the inoculate of both plates was removed and Neutral Red Uptake vitality assay was performed. F.U.: fluorescence unit F.U. positive control: average of F.U. emitted from cells exposed to the H2O2 solution (maximum production of free radicals) F.U. negative control: average of F.U. emitted from cells not exposed to oxidative stress At each time interval of exposure ([NT]5) there were carried out: the average of F.U. emitted from cells exposed to the sample, to vitamin C without oxidative stress, is subtracted from the average of F.U. emitted from cells exposed to the sample, to vitamin C and oxidative stress. In other words, the average values of fluorescence emitted from the non-stressed plate were subtracted from the average values of fluorescence emitted from the stressed plate. […]: cells exposed to the sole sample F.U. Controlpos: cells exposed to the sole oxidative stress F.U. Controlneg: cells exposed to saline without oxidative stress

[2] = Stability of the composition (total tannins as pyrogallol, EP 9.2, 2.8.14); type: physicochemical; details: fluid form (syrup), 40° C. and 75% of relative humidity, six months
Description: The stability of the composition of the invention in fluid form (syrup, as per examples above, at 2) with regard to tannins was assessed by measuring the content of total tannins, expressed as pyrogallol, by means of spectrophotometric method described in European Pharmacopoeia (EP 9.2, 2.8.14) for agrimony.

SMILES: O=C1O[C@H]([C@@H](O)CO)C(O)=C1O [Vit. C, Ascorbic acid]
- % PROTECTION FROM FREE RADICALS ([1]; 20 MIN, 500 μM H2O2): 57%
- FREE RADICAL DEVELOPMENT ([1]; 20 MIN, 500 μM H2O2): 5993
- % PROTECTION FROM FREE RADICALS ([1]; 40 MIN, 500 μM H2O2): 60%
- FREE RADICAL DEVELOPMENT ([1]; 40 MIN, 500 μM H2O2): 5721
- % PROTECTION FROM FREE RADICALS ([1]; 60 MIN, 500 μM H2O2): 60%
- FREE RADICAL DEVELOPMENT ([1]; 60 MIN, 500 μM H2O2): 5240
- % PROTECTION FROM FREE RADICALS ([1]; 80 MIN, 500 μM H2O2): 63%
- FREE RADICAL DEVELOPMENT ([1]; 80 MIN, 500 μM H2O2): 4802
- % PROTECTION FROM FREE RADICALS ([1]; 100 MIN, 500 μM H2O2): 61%
- FREE RADICAL DEVELOPMENT ([1]; 100 MIN, 500 μM H2O2): 4937
- % PROTECTION FROM FREE RADICALS ([1]; T0, 500 μM H2O2): 45%
- FREE RADICAL DEVELOPMENT ([1]; T0, 500 μM H2O2): 5654
- stability in fluid form ([2]; listed as Vitamin C): did not exhibit stability beyond T0
- stability in fluid form ([2]; listed as vitamin C): markedly unstable
